This test addresses T1, Acetylcholinesterase (Bos taurus, UniProt P23795).
T1 sequence (P23795 whole entry): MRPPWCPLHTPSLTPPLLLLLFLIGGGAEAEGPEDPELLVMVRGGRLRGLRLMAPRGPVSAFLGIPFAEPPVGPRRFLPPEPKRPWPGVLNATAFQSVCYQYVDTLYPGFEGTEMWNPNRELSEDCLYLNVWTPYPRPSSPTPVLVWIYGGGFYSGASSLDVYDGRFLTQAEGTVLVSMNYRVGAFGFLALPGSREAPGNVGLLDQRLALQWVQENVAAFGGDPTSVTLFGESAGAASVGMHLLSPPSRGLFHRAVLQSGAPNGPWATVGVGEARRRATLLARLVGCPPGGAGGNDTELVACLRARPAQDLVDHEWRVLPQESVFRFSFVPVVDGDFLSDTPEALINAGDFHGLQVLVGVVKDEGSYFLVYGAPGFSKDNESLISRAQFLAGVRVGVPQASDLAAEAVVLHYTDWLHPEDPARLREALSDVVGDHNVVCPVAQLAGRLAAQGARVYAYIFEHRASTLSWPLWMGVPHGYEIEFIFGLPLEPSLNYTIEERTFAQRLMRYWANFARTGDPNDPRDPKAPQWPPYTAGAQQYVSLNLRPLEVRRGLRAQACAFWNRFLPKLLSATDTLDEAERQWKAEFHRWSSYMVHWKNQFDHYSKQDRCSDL
Kind of test: Kinetic constant for inhibition of fetal bovine serum acetylcholinesterase. The settings on record: for kon: read-out: kon (M-1-s-1).

SMILES strings stand for the structures.

What is called kon is the rate constant with which the complex forms. Take `C/C=C1\C2C=C(C)C[C@]1(N)c1ccc(=O)[nH]c1C2(C)C` [(R)-1-Amino-13-ethylidene-8,8,11-trimethyl-6-aza-tricyclo[7.3.1.0*2,7*]trideca-2(7),3,10-trien-5-one]: the kon worked out at 0.013 M⁻¹ s⁻¹.

For the compound `C/C=C1\[C@H]2C=C(C)C[C@@]1(N)c1ccc(=O)[nH]c1C2` [Huperzine A], the “kon (M-1-s-1)” value was 0.05667 M-1-s-1 and the kon came out at 0.057 M⁻¹ s⁻¹.

Values taken from BindingDB's records for doi:10.1016/0960-894X(96)00012-1 (1996).
